Entries after “also recorded” stand apart in the source; their conditions may differ.
Legend:
[1] = system: CHRFAM7A promoter; assay: CHRFAM7A promoter luciferase reporter in THP1 cells; format: cell-based, human; details: THP1 cells pre-treated with 100 ng/ml LPS
Excerpt: (§1) Analyses of the CHRFAM7A promoter: The putative CHRFAM7A promoter region spanning from −2363 to +22 relative to the open reading frame ATG start codon was amplified by PCR of genomic DNA isolated from HEK293 cells. The longest fragment was cloned into pGL4 promoter-less luciferase reporter plasmid (Promega) according to the manufacturers specifications and the resulting plasmid, pGL4-CHRFAM7A (˜2400) was confirmed by DNA sequencing and thereafter referred to f2400 to reflect the size of the fragment. […]
(§2) The fragments generated were cloned into the pGL4 vector to create plasmids f1800, f1000, and f500, which were each sequenced to confirm their identity. These plasmids were then transiently transfected into THP1 cells as described below, and luciferase activity was analyzed 30 hours after transfection following the manufacturer's instructions (Promega). […]
THP1 cells, cultured in RPMI1640 supplemented with 1× Glutamax and 1× Penicillin/Streptomycin, were seeded at 5×10^5 per well in a 24-well plate two hours before transfection. […] The lysate was spun down and 10 μl of the supernatant was used for luciferase assay on POLARstar Omega plate reader (BMG LABTECH). Luciferase activity normalized to protein concentration was expressed as fold changes over that of pGL4 transfected cells.

[2] = system: CHRFAM7A promoter; assay: CHRFAM7A promoter luciferase reporter in FHs cells; format: cell-based, human; details: LPS 100 ng/ml
Excerpt: as §1, with “The” for “Analyses of the CHRFAM7A promoter: The”, “(2400)” for “(˜2400)”, “F2400” for “f2400”
as §2, with “FHs” for “THP1”
Transfections of FHs cells for luciferase activity: The normal human small intestine FHs cells were cultured in 10% DMEM/F12 supplemented with 1× Glutamax, 1× Penicillin/Streptomyxin, and 30 ng/ml EGF and seeded at 1×10^5 per well in a 12-well plate the day before transfection. […] The lysate was spun down and 10 μl of the supernatant was used for luciferase assay on POLARstar Omega plate reader (BMG LABTECH).

[3] = system: CHRNA7 gene expression; assay: qPCR of CHRNA7 gene expression in gut epithelial cells treated with LPS; format: cell-based, human; details: 3 hours
Description: (§3) All epithelial cancer cell lines were originally purchased from American Type Culture Collection and propagated as instructed. Normal human small intestine epithelial cells (FHs-Int-74) were also obtained from the ATCC (CCL-241). Cells were seeded at 2×10^6 in 6-well tissue culture plates the day before the experiment. As indicated, cells were either harvested directly for total RNA preparation, processed for transient transfection, or treated with LPS (CAT# L4391, Sigma) at 100 ng/ml for 3 hours. At the end of the incubation with LPS, cells were harvested and used for analyses of gene expression.
(§4) Total RNA was prepared using RNeasy kit (Qiagen) and was quantitated using Nanodrop Spectrophotometer. One μg total RNA was reverse transcribed using iScript cDNA synthesis kit (BioRad) in a 20 μl reaction. Of the 20 μl cDNA, one μl was used for RT-PCR or real-time qPCR.
(§5) RT-PCR was performed in a 50 μl reaction containing 45 μl PCR blue mix (Invitrogen), 1 μl of each primer (10 μM), 1 μl cDNA, and 2 μl water. The cycling conditions were: 94° C. for 4 minutes followed by 35 cycles of 94° C. for 30 seconds, 60° C. for 30 seconds, and 72° C. for 60 seconds and a final extension at 72° C. for 5 minutes. Ten μl of each PCR products were resolved on a 2% agarose gel and images were acquired using Alpha Innotech imaging system. Real-time qPCR was performed in a 25 μl reaction containing 12.5 μl 2×CYBR Green PCR Master Mix (BioRad), 0.5 μl of each primer (10 μM), 1 μl cDNA, and 10.5 μl water. PCR cycling conditions were: 95° C. for 10 minutes followed by 45 cycles of 94° C. for 25 seconds, 60° C. for 25 seconds, and 72° C. for 40 seconds. Primer efficiency for CHRFAM7A and CHRNA7 were 100% and 94% respectively. Expression of CHRNA7 and CHRFAM7A was normalized to that of GAPDH using ΔΔCt method.
Primers for CHRNA7 were designed to hybridize with both variant 1 and 2 transcripts of CHRNA7 by selecting sequences present in CHRNA7 but absent from CHRFAM7A for amplification: Sense, 5′-acATGcgctgctcgccggga-3′ (SEQ ID NO:13), Anti-sense, 5′-[…]-3′ (SEQ ID NO:14).

[4] = system: CHRNA7 and CHRFAM7A; details: undifferentiated human THP1 cells and human macrophages; cited from earlier work
[5] = system: CHRFAM7A/CHRNA7 gene expression; assay: qRT-PCR ratio of CHRFAM7A to CHRNA7 in leukocyte cell lines treated with LPS; format: cell-based, human; details: 100 ng/ml LPS, 3 hours
Excerpt: All cell lines were originally purchased from ATCC and/or acquired through the UCSD Department of Surgery, Division of Trauma, Burns and Acute Care Surgery Cell Repository. Thawed cells were washed in RPMI culture media containing 10% FCS, the pellet reconstituted in culture media and cells plated into six-well tissue culture plates. All cells were washed 48 hrs later and allowed to grow to 90% confluence and propagated with trypsin digestion as needed. For transduction studies, cells were seeded at 2×10^6 in 6-well tissue culture plates the day before the experiment. As indicated in each experiment, cells were harvested directly from the culture dishes for total RNA preparation, processed for stable or transient transfection, or treated with 100 ng/ml LPS (CAT# L4391, Sigma) for 3 hours. At the end of incubations, cells were harvested, total RNA isolated and the cDNA generated (see below) used for analyses of gene expression.
Total RNA was prepared from cell lysates using the RNeasy kit (Qiagen, San Diego Calif.) and was quantified using a Nanodrop Spectrophotometer. […]
RT-PCR and Quantitative RT-PCR for CHRFAM7A and CHRNA7: RT-PCR was performed in a 50 μl reaction containing 45 μl PCR blue mix (Invitrogen), 1 μl of each primer (10 μM), 1 μl cDNA, and 2 μl water. […]

[6] = system: CHRFAM7A gene expression; assay: qPCR of CHRFAM7A gene expression in gut epithelial cells treated with LPS; format: cell-based, human
Description: as §3, §4, §5
Primers for CHRFAM7A were designed to hybridize with the variant 1 transcript by selecting sequences that bridge CHRFAM7A and CHRNA7 and therefore unique to CHRFAM7A and not available in FAM7A or CHRNA7A alone: Sense: 5′-ATAGCTGCAAACTGCGATA-3′ (SEQ ID NO:11), Anti-sense: 5′-[…]-3′(SEQ ID NO:12).

Q: With lipopolysaccharide [LPS] as the substance, how does the “luciferase signal of CHRFAM7A 5'UTR fragments” value [1] read?
A: Its value is “decreased; also recorded: inhibited”.

Q: What about the “luciferase activity profile of CHRFAM7A UTR fragments” value [2] of the same substance?
A: Its value is “very similar profile”.

Q: What about the “increase in CHRNA7 gene expression” value ([3]; CaCo2, KM12, KM20, SW, Colo205 cells, 100 ng LPS) of the same substance?
A: Its value is “less than two-fold”.

Q: What about the “decrease in CHRNA7 gene expression” value ([3]; FHs and T84 cells, 100 ng LPS) of the same substance?
A: The value was 30%.

Q: What about the “effect on CHRNA7 gene expression” value ([3]; epithelial cells, 100 ng/ml LPS) of the same substance?
A: The value was “little to no effect; also recorded: little effect”.

Q: And the “effect on CHRNA7 and CHRFAM7A” value [4]?
A: Its value is “inhibits”.

Q: What about the “ratio of CHRFAM7A to CHRNA7 gene expression” value [5] of the same substance?
A: The value was “unaffected; also recorded: both genes respond equally”.

Q: What about the “CHRFAM7A gene expression by q-PCR” value ([6]; FHs cells, 100 ng/ml LPS, 3 hr) of the same substance?
A: Its value is “increases”.

Q: And the “relative expression of CHRFAM7A over CHRNA7” value ([6]; HCT116T, KM20L and T84 cells, LPS)?
A: Its value is “unchanged”.

Q: And the “change of CHRFAM7A gene expression” value ([6]; KM12 and T84 cells, 100 ng/ml LPS)?
A: The value was “decreased”.

Q: And the “increase of CHRFAM7A gene expression” value ([6]; epithelial cells, 100 ng/ml LPS, 3 hour treatment)?
A: The value was ~1000 fold.

Q: And the “increase of relative expression of CHRFAM7A over CHRNA7” value ([6]; gut epithelial cells, depending on the cell line, LPS)?
A: The value was 2-200 fold.

Source: patent publication US20170266222A1, “MODULATION OF CHRFAM7A FOR ANTI-INFLAMMATORY THERAPIES” (THE REGENTS OF THE UNIVERSITY OF CALIFORNIA, priority 2016, published 2017)
